Assay results published in US20190119300A1, “SUBSTITUTED AND FUSED 6-MEMBERED PROTEASE ACTIVATED RECEPTOR 4 (PAR-4) ANTAGONISTS” (Vanderbilt University, priority 2016, published 2019).

How the values were obtained:
PAR-4 [1] = biological target: T1, PAR-4 (Homo sapiens, UniProt Q96RI0); assay: PAC-1 binding assay, washed platelets stimulated with PAR-4-AP (flow cytometry); type: cell-based; settings: PAR-4-AP stimulation; for remaining activity at 10 µM: 10 μM antagonist, 100% = DMSO control stimulated, read-out: PAR-4 AP % Max PAC-1 binding (10 μM); for IC50: read-out: PAR-4 AP % Max PAC-1 binding (IC50 [M])
T1 construct: endogenous in cells; host or cells: washed platelets
T1 sequence (Q96RI0 18-385): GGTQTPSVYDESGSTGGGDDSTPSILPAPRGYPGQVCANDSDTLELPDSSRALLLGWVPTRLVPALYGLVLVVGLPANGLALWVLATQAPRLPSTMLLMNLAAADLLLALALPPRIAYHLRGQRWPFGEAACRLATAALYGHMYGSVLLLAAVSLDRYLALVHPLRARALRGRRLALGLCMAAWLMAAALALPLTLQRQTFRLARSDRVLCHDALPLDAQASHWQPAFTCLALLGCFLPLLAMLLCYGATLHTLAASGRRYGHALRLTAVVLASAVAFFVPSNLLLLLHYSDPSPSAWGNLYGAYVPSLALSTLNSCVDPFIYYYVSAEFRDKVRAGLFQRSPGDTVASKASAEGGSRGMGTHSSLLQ
Protocol: (§1) PAC-1 Binding assay: 60 μL of washed platelets (Tyrodes buffer containing 0.1% BSA) at a concentration of 0.15×10^8 platelets/mL were added to 5 mL round bottom polystyrene tubes (BD, Franklin Lakes, N.J.). FITC conjugated PAC-1 (BD Biosciences, San Jose, Calif.) antibody was diluted (to the manufacturers recommended concentration) in Tyrode's buffer containing 0.1% BSA. 40 μL of diluted antibody was added to the platelets and allowed to incubate for 5 minutes. Platelets were pre-treated with indicated concentrations of antagonist or DMSO control for 20 minutes (the final DMSO concentration was 0.5%) followed by addition of PAR-1-AP (GL Biochem, Shanghai, China), PAR-4-AP, or gamma-thrombin for 10 minutes. Platelet activity was quenched by the addition ice cold 1.5% paraformaldehyde followed by dilution in 1× phosphate buffered saline. Platelets were stored up to 18 hours at 4° C. before flow cytometric analysis. Analysis was carried out on a BD FACS Canto II or BD LSRII (Franklin Lakes, N.J.). Fluorescent intensity was determined for at least 20,000 events within the platelet gate (forward scatter versus side scatter). Data was collected and analyzed via FACS DiVa or FlowJo software. Flow cytometric data analysis was conducted by the following method. The DMSO-vehicle treated control was subtracted from each data point. 100% response for PAR-4-AP was determined for each individual as the DMSO treated control stimulated with PAR-4-AP, PAR-1-AP, or gamma-thrombin. Data was plotted in GraphPad PRISM v.5.0. For compounds with a notable reduction in PAC-1 binding response, dose response curves and IC50 values were generated using the inhibitory sigmoidal dose response ‘variable slope’ parameter. Results were plotted as mean±SEM.

PAR-4 [2] = biological target: T1, PAR-4; assay: PAC-1 binding assay, washed platelets stimulated with 100 nM gamma-thrombin (flow cytometry); type: cell-based; settings: 100 nM γ-thrombin stimulation
Excerpt: Gamma-thrombin is a proteolytic product of alpha-thrombin cleavage by a serine protease. Cleavage results in the disruption of exosite I which interacts directly with the hirudin-like domain of its primary substrates fibrinogen and protease-activated receptor 1 (PAR1). […] See Soslau, G., Class, R., Morgan, D. A., Foster, C., Lord, S. T., Marchese, P., and Ruggeri, Z. M. (2001) Unique pathway of thrombin-induced platelet aggregation mediated by glycoprotein Ib, The Journal of biological chemistry 276, 21173-21183. Gamma-thrombin (Enzyme Research Laboratories, South Bend, Indiana) is produced by trypsin-sepharose cleavage of alpha-thrombin. To neutralize alpha-thrombin contamination, stock solutions of gamma-thrombin are preincubated with 1 unit/mL hirudin prior 100 fold dilution into the sample for platelet stimulation. […] Single point screens and concentration response curves are conducted with 316 nanomolar or 100 nanomolar gamma-thrombin using PAC1 and CD62p binding.
as §1

Row | SMILES | remaining activity at 10 µM (PAR-4 [1]) | IC50 (PAR-4 [1]) | IC50 (PAR-4 [2])
1 | CCOc1nn2cc(-c3ccc(C(F)(F)F)cc3)nc2s1 [Example B39] | 2.21% | 6.48e-07 M | –
2 | CC(C)COc1nn2cc(-c3ccc(C(F)(F)F)cc3)nc2s1 [Example B41] | 102% | – | –
3 | COc1nn2cc(-c3cccc(OCc4csc(-c5ccccc5)n4)c3)nc2s1 [Example B47] | -0.27% | 4.32e-08 M | ≥ 1000 nM
4 | COc1nn2cc(-c3ccc(C#N)cc3)nc2s1 [Example B17] | 0.93% | 8.95e-07 M | –
5 | COc1nn2cc(-c3ccc(F)cc3F)nc2s1 [Example B5] | 0.21% | 1.75e-07 M | –
6 | COc1nn2cc(-c3c(F)cccc3F)nc2s1 [Example B4] | 1.29% | – | –
7 | COc1nn2cc(-c3cccnc3)nc2s1 [Example B22] | 81.3% | – | –
8 | COc1nn2cc(-c3ccc(Cl)cc3)nc2s1 [Example B19] | 0.02% | – | –
9 | COc1nn2cc(-c3ccc(OCc4csc(-c5ccccc5)n4)cc3)nc2s1 [Example B43, 2-Methoxy-6-(4-((2-phenylthiazol-4-yl)methoxy)phenyl)imidazo[2,1-b][1,3,4]thiadiazole] | 0.91% | 1.33e-06 M | –
10 | COc1nn2cc(-c3ccc4sccc4c3)nc2s1 [Example B54] | 20.7% | 7.75e-08 M | > 1000 nM
11 | COc1nn2cc(-c3ccc(C)cc3)nc2s1 [Example B12, 2-methoxy-6-(p-tolyl)imidazo[2,1-b][1,3,4]thiadiazole] | 1.78% | 5.2e-08 M | > 1000 nM
12 | COc1nn2cc(-c3ccccc3C(F)(F)F)nc2s1 [Example B2] | -0.14% | 1.33e-06 M | –
13 | COc1nn2cc(-c3ccccc3[N+](=O)[O-])nc2s1 [Example B49] | 17.1% | > 1e-06 M | –
14 | COc1nn2cc(-c3ccc(C(F)(F)F)cc3)nc2s1 [Example B1] | -1.91% | – | –
15 | FC(F)(F)c1ccc(-c2cn3nc(OC4CCCC4)sc3n2)cc1 [Example B42] | 114% | – | –
16 | CCOc1nn2cc(-c3c(F)cccc3F)nc2s1 [Example B32] | 3.47% | 1.17e-06 M | –
17 | COc1nn2cc(-c3ccc(Oc4ccccc4)cc3)nc2s1 [Example B9] | -0.09% | 1.43e-07 M | –
18 | CC(C)COc1nn2cc(-c3cccc(Cl)c3)nc2s1 [Example B37] | 97.3% | – | –
19 | COc1nn2cc(-c3ccccn3)nc2s1 [Example B18] | 18.6% | 2.22e-05 M | –
20 | COc1nn2cc(-c3cccc(C(F)(F)F)c3)nc2s1 [Example B3] | -0.26% | – | –
21 | COc1nn2cc(-c3ccc(O)cc3O)nc2s1 [Example B13] | 98.4% | – | –
22 | COc1nn2cc(-c3ccc4ncn(C)c4c3)nc2s1 [Example B45] | 48.1% | – | –
23 | COc1nn2cc(-c3ccc(-c4ccccc4)cc3)nc2s1 [Example B51] | 72.7% | – | –
24 | COc1nn2cc(-c3cccc([N+](=O)[O-])c3)nc2s1 [Example B50] | 6.82% | > 1e-06 M | –
25 | COc1nn2cc(-c3ccc(Br)cc3F)nc2s1 [Example B6] | 2.82% | 1.96e-07 M | –
26 | COc1nn2cc(-c3ccc(Cl)c([N+](=O)[O-])c3)nc2s1 [Example B26] | 1.52% | 9.95e-08 M | –
27 | CCOc1nn2cc(-c3cccc(Cl)c3)nc2s1 [Example B35] | 2.31% | 1.24e-06 M | –

Row | SMILES | remaining activity at 10 µM (PAR-4 [1]) | IC50 (PAR-4 [1]) | IC50 (PAR-4 [2])
28 | COc1nn2cc(-c3ccc(OC(F)(F)F)cc3)nc2s1 [Example B27] | -0.2% | – | –
29 | COc1nn2cc(-c3ccc(F)cc3)nc2s1 [Example B52] | 0.063% | 4.06e-07 M | –
30 | COc1nn2cc(-c3ccccc3OC)nc2s1 [Example B15] | 8.45% | 3.95e-06 M | –
31 | COc1ccc(-c2cn3nc(OC)sc3n2)cc1 [Example B10] | -1.59% | 6.25e-07 M | –
32 | COc1nn2cc(-c3ccc([N+](=O)[O-])cc3)nc2s1 [Example B31] | 1.6% | 2.07e-07 M | –
33 | COc1nn2cc(-c3ccccc3OCc3csc(-c4ccccc4)n3)nc2s1 [Example B48] | 96% | – | –
34 | CC(C)Oc1nn2cc(-c3cccc(Cl)c3)nc2s1 [Example B36] | 63.2% | – | –
35 | CC(C)COc1nn2cc(-c3c(F)cccc3F)nc2s1 [Example B44] | 93.7% | – | –
36 | Fc1cccc(F)c1-c1cn2nc(OC3CCCC3)sc2n1 [Example B34] | 109% | – | –
37 | COc1nn2cc(-c3ccc(OC(F)F)cc3)nc2s1 [Example B28] | -0.21% | 8.34e-08 M | > 1000 nM
38 | COc1nn2cc(-c3ccccc3F)nc2s1 [Example B30] | -0.14% | 5.26e-07 M | –
39 | COc1nn2cc(-c3ccc(F)c(C(F)(F)F)c3)nc2s1 [Example B29] | -0.45% | – | –
40 | COc1nn2cc(-c3cccc(Cl)c3)nc2s1 [Example B23] | -1.07% | 6.9e-08 M | > 1000 nM
41 | COc1nn2cc(-c3ccccc3Cl)nc2s1 [Example B21] | 0.74% | 4.54e-07 M | –
42 | COc1nn2cc(-c3ccc(N4CCOCC4)cc3)nc2s1 [Example B46] | 10.4% | – | –
43 | Clc1cccc(-c2cn3nc(OC4CCCC4)sc3n2)c1 [Example B38] | 99.5% | – | –
44 | COc1nn2cc(-c3ccc(-c4cccs4)cc3)nc2s1 [Example B24] | 3.35% | 1.63e-07 M | –
45 | COc1nn2cc(-c3ccccc3O)nc2s1 [Example B14] | 92.7% | – | –
46 | CC(C)Oc1nn2cc(-c3c(F)cccc3F)nc2s1 [Example B33] | 102% | – | –
47 | COc1nn2cc(-c3cccc(F)c3)nc2s1 [Example B7] | 1.47% | 6.85e-07 M | –
48 | CC(C)Oc1nn2cc(-c3ccc(C(F)(F)F)cc3)nc2s1 [Example B40] | 81.5% | – | –
49 | COc1nn2cc(-c3ccc(Cl)c(Cl)c3)nc2s1 [Example B20] | -0.92% | – | –
50 | COc1nn2cc(-c3ccc(S(C)(=O)=O)cc3)nc2s1 [Example B11] | 4.19% | 1.09e-06 M | –
51 | COc1nn2cc(-c3ccc(O)cc3)nc2s1 [Example B16] | 91.2% | – | –
52 | COc1nn2cc(-c3cc(C(F)(F)F)cc(C(F)(F)F)c3)nc2s1 [Example B25] | -0.34% | 5.23e-08 M | > 1000 nM
53 | COc1cccc(-c2cn3nc(OC)sc3n2)c1 [Example B53] | -0.071% | 2.91e-07 M | –
54 | COc1nn2cc(-c3ccccc3)nc2s1 [Example B8] | 1.48% | 7.08e-07 M | –
